pEC50, pIC50, pKd: −log10 of the molar value. Blank lines part the entries; values can stand above or below the molecule they belong to. The source made the active and inactive calls. The rule behind the calls is not given here.
Tests used:
MV4-11 [1] = assay: cells; settings: Homo sapiens, MV4-11, 72 h
Description: Cytotoxicity against human MV4-11 cells assessed as reduction in cell viability after 72 hrs by trypan blue dye exclusion method

[2] = Toxicity in NMRI nu/nu mouse assessed as weight gain at 75 mg/kg/day, po for 3 days relative to control; type: organism-based; settings: in vivo, 72 h, time 3 day
[3] = Toxicity in NMRI nu/nu mouse assessed as lethality at 75 mg/kg/day, po for 3 days; type: organism-based; settings: in vivo, 72 h, time 3 day
cells [4] = settings: Homo sapiens, OCI-M1, 96 h
Description: Cytotoxicity against human OCI-M1 cells assessed as reduction in cell viability after 4 days by CellTiter-Blue assay

IM-9 = assay: cells; settings: Homo sapiens, IM-9, 96 h
Description: Cytotoxicity against human IM-9 cells assessed as reduction in cell viability after 4 days by CellTiter-Blue assay

EOL1 = assay: cells; settings: Homo sapiens, EOL1, 96 h
Description: Cytotoxicity against human EOL1 cells assessed as reduction in cell viability after 4 days by CellTiter-Blue assay

HL-60 = assay: cells; settings: Homo sapiens, HL-60, 96 h
Description: Cytotoxicity against human HL-60 cells assessed as reduction in cell viability after 4 days by CellTiter-Blue assay

KG-1 = assay: cells; settings: Homo sapiens, KG-1, 96 h
Description: Cytotoxicity against human KG-1 cells assessed as reduction in cell viability after 4 days by CellTiter-Blue assay

KG-1a = assay: cells; settings: Homo sapiens, 96 h
Description: Cytotoxicity against human KG-1a cells assessed as reduction in cell viability after 4 days by CellTiter-Blue assay

MOLM-13 = assay: cells; settings: Homo sapiens, MOLM-13, 96 h
Description: Cytotoxicity against human MOLM-13 cells assessed as reduction in cell viability after 4 days by CellTiter-Blue assay

MV4-11 [5] = assay: cells; settings: Homo sapiens, MV4-11, 96 h
Description: Cytotoxicity against human MV4-11 cells assessed as reduction in cell viability after 4 days by CellTiter-Blue assay

NOMO-1 = assay: cells; settings: Homo sapiens, NOMO-1, 96 h
Description: Cytotoxicity against human NOMO-1 cells assessed as reduction in cell viability after 4 days by CellTiter-Blue assay

OCI-AML2 = assay: cells; settings: Homo sapiens, OCI-AML2, 96 h
Description: Cytotoxicity against human OCI-AML2 cells assessed as reduction in cell viability after 4 days by CellTiter-Blue assay

cells [6] = settings: Homo sapiens, PL-21, 96 h
Description: Cytotoxicity against human PL21 cells assessed as reduction in cell viability after 4 days by CellTiter-Blue assay

THP-1 = assay: cells; settings: Homo sapiens, THP-1, 96 h
Description: Cytotoxicity against human THP-1 cells assessed as reduction in cell viability after 4 days by CellTiter-Blue assay

L-363 = assay: cells; settings: Homo sapiens, L-363, 96 h
Description: Cytotoxicity against human L-363 cells assessed as reduction in cell viability after 4 days by CellTiter-Blue assay

OPM-2 = assay: cells; settings: Homo sapiens, OPM-2, 96 h
Description: Cytotoxicity against human OPM-2 cells assessed as reduction in cell viability after 4 days by CellTiter-Blue assay

RPMI-8226 = assay: cells; settings: Homo sapiens, RPMI-8226, 96 h
Description: Cytotoxicity against human RPMI-8226 cells assessed as reduction in cell viability after 4 days by CellTiter-Blue assay

U-266 = assay: cells; settings: Homo sapiens, U-266, 96 h
Description: Cytotoxicity against human U-266 cells assessed as reduction in cell viability after 4 days by CellTiter-Blue assay

KMOE-2 = assay: cells; settings: Homo sapiens, KMOE-2, 96 h
Description: Cytotoxicity against human KMOE-2 cells assessed as reduction in cell viability after 4 days by CellTiter-Blue assay

cells [7] = settings: Homo sapiens, ME-1, 96 h
Description: Cytotoxicity against human ME-1 cells assessed as reduction in cell viability after 4 days by CellTiter-Blue assay

ML-2 = assay: cells; settings: Homo sapiens, ML-2, 96 h
Description: Cytotoxicity against human ML-2 cells assessed as reduction in cell viability after 4 days by CellTiter-Blue assay

cells [8] = settings: Homo sapiens, Mono-Mac-1, 96 h
Description: Cytotoxicity against human MONO-MAC-1 cells assessed as reduction in cell viability after 4 days by CellTiter-Blue assay

MONO-MAC-6 = assay: cells; settings: Homo sapiens, MONO-MAC-6, 96 h
Description: Cytotoxicity against human MONO-MAC-6 cells assessed as reduction in cell viability after 4 days by CellTiter-Blue assay

NB-4 = assay: cells; settings: Homo sapiens, NB-4, 96 h
Description: Cytotoxicity against human NB-4 cells assessed as reduction in cell viability after 4 days by CellTiter-Blue assay

OCI-AML-5 = assay: cells; settings: Homo sapiens, OCI-AML-5, 96 h
Description: Cytotoxicity against human OCI-AML5 cells assessed as reduction in cell viability after 4 days by CellTiter-Blue assay

SKM-1 = assay: cells; settings: Homo sapiens, SKM-1, 96 h
Description: Cytotoxicity against human SKM-1 cells assessed as reduction in cell viability after 4 days by CellTiter-Blue assay

TF-1 = assay: cells; settings: Homo sapiens, TF-1, 96 h
Description: Cytotoxicity against human TF-1 cells assessed as reduction in cell viability after 4 days by CellTiter-Blue assay

cells [9] = settings: Homo sapiens, MOLP-2, 96 h
Description: Cytotoxicity against human MOLP-2 cells assessed as reduction in cell viability after 4 days by CellTiter-Blue assay

physchem = settings: water
Description: Solubility of compound in water at 10 mg after 3 hrs by UV-spectra analysis

[10] = molecular target: Receptor-type tyrosine-protein kinase FLT3 (Homo sapiens, UniProt P36888, ITD)
[11] = molecular target: Receptor-type tyrosine-protein kinase FLT3 (Homo sapiens, UniProt P36888, D835Y)
[12] = molecular target: Receptor-type tyrosine-protein kinase FLT3 (Homo sapiens, UniProt P36888, F691L/ITD)
Description: Binding affinity to human partial length FLT3 ITD/F691L double mutant expressed in mammalian expression system by Kinomescan method

[13] = molecular target: Proto-oncogene tyrosine-protein kinase receptor Ret (Homo sapiens, UniProt P07949); assay: Inhibition of human RET incubated for 30 mins by Kinobead based assay
[14] = molecular target: Receptor-type tyrosine-protein kinase FLT3 (Homo sapiens, UniProt P36888); assay: Inhibition of human FLT3 incubated for 30 mins by Kinobead based assay
[15] = molecular target: Mitogen-activated protein kinase kinase kinase kinase 4 (Homo sapiens, UniProt O95819); assay: Inhibition of human MAP4K4 incubated for 30 mins by Kinobead based assay
[16] = molecular target: Mitogen-activated protein kinase kinase kinase 20 (Homo sapiens, UniProt Q9NYL2); assay: Inhibition of human ZAK incubated for 30 mins by Kinobead based assay
[17] = molecular target: Discoidin domain-containing receptor 2 (Homo sapiens, UniProt Q16832); assay: Inhibition of human DDR2 incubated for 30 mins by Kinobead based assay
[18] = molecular target: Cyclin-dependent kinase 16 (Homo sapiens, UniProt Q00536); assay: Inhibition of human CDK16 incubated for 30 mins by Kinobead based assay
Ephrin type-A receptor 7 = Ephrin type-A receptor 7 (Homo sapiens, UniProt Q15375); assay: Inhibition of human EPHA7 incubated for 30 mins by Kinobead based assay
[19] = molecular target: Receptor-type tyrosine-protein kinase FLT3 (Homo sapiens) (UniProt P36888); settings: MV4-11, dose 20-40 nM, time 3.0 hrs

Sequence of Ephrin type-A receptor 7 (Q15375 whole entry): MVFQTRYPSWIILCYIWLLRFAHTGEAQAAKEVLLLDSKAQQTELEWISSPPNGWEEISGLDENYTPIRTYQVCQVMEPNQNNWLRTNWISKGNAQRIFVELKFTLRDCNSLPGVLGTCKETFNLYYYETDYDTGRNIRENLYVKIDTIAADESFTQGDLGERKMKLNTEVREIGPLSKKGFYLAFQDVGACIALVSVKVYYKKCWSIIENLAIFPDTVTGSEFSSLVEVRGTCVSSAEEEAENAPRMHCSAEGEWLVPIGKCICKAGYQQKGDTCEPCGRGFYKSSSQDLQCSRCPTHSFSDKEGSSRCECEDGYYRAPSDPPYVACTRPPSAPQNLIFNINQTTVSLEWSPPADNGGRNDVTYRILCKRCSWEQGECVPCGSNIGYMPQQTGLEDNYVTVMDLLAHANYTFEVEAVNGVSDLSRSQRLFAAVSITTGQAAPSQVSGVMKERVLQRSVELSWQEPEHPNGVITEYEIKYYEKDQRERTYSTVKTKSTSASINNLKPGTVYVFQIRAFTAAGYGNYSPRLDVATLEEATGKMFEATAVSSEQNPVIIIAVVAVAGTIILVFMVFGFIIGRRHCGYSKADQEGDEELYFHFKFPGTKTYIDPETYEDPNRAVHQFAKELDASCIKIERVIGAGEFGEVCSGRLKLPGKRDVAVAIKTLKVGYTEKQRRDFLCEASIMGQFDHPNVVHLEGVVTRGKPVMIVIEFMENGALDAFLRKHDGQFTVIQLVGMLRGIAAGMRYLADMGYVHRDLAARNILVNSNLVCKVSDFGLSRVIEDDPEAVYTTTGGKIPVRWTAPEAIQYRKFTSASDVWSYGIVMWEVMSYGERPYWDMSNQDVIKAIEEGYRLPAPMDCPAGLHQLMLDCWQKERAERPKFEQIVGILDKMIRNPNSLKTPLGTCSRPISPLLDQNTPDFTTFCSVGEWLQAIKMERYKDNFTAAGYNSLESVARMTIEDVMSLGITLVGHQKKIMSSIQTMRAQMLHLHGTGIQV
Sequence of Proto-oncogene tyrosine-protein kinase receptor Ret (P07949 whole entry): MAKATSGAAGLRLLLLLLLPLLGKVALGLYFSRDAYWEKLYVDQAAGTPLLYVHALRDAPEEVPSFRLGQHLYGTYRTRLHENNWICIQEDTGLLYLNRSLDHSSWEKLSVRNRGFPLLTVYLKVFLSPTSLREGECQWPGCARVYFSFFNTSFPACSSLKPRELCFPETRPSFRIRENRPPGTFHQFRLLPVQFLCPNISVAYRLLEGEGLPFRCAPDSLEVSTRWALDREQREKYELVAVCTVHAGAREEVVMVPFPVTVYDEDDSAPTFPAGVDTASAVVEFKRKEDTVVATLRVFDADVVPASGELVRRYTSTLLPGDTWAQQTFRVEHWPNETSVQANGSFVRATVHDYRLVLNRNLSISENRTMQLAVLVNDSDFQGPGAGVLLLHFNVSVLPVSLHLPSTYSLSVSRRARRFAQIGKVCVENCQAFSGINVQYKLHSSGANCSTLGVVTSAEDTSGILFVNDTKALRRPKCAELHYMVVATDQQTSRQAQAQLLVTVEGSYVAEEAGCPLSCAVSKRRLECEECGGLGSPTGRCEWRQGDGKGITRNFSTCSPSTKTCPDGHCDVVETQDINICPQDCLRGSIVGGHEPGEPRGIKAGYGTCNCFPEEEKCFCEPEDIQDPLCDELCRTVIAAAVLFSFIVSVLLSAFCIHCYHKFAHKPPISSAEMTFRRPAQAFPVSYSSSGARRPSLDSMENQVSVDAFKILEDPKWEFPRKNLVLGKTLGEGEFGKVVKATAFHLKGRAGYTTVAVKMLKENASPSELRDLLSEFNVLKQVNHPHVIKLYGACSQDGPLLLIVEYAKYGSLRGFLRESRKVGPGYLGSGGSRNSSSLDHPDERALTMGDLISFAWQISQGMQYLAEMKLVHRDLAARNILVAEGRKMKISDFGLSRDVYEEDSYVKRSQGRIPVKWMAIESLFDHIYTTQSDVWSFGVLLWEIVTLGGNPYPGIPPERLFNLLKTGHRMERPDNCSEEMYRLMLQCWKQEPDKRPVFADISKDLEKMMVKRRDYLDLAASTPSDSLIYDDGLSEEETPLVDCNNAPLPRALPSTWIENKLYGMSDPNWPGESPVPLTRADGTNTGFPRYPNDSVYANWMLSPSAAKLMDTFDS
Sequence of Cyclin-dependent kinase 16 (Q00536 whole entry): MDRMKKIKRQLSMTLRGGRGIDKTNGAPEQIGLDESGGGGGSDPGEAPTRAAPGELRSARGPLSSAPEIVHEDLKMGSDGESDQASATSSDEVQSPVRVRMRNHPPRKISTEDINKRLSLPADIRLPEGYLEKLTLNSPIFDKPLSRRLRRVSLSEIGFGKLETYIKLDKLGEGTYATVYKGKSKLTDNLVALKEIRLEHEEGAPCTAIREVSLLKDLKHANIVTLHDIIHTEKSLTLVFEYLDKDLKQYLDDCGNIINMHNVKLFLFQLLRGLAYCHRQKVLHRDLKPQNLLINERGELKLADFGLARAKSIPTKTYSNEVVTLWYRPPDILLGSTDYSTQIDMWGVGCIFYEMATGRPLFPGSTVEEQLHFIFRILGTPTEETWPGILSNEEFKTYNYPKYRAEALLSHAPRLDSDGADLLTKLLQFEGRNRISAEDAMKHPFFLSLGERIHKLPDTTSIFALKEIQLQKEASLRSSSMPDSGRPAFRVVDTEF
Sequence of Mitogen-activated protein kinase kinase kinase kinase 4 (O95819 whole entry): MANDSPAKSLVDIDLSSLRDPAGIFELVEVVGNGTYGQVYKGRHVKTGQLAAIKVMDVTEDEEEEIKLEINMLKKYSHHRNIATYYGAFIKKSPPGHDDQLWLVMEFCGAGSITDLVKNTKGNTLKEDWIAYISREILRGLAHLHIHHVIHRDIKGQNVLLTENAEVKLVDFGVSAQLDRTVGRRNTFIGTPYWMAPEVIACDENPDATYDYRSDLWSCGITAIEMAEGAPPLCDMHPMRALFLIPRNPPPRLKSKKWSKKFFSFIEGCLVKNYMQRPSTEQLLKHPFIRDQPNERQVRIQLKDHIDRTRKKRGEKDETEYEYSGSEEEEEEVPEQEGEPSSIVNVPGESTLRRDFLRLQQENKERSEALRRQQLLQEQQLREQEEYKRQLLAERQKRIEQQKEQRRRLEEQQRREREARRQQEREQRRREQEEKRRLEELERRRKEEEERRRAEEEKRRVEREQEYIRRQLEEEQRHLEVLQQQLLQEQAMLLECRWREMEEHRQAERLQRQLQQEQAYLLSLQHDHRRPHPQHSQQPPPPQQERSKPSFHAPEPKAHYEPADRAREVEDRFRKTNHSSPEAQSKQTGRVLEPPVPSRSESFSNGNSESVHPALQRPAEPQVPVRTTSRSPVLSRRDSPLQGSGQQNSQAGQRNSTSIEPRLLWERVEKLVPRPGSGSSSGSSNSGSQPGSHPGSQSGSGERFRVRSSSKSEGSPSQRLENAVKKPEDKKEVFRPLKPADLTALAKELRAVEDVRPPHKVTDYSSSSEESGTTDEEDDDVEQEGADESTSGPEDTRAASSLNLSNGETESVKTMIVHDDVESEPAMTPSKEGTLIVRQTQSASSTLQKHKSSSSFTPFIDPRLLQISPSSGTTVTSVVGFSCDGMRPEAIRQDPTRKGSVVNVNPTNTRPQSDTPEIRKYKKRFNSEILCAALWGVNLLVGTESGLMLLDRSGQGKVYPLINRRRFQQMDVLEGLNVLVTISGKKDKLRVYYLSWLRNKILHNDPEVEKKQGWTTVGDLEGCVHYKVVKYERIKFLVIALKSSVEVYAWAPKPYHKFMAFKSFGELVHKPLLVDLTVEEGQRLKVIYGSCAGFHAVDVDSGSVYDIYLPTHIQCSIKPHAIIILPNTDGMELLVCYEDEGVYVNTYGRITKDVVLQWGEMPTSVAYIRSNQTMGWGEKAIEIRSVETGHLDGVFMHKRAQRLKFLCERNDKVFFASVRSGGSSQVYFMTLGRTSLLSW
Sequence of Mitogen-activated protein kinase kinase kinase 20 (Q9NYL2 whole entry, the tested form may be a part): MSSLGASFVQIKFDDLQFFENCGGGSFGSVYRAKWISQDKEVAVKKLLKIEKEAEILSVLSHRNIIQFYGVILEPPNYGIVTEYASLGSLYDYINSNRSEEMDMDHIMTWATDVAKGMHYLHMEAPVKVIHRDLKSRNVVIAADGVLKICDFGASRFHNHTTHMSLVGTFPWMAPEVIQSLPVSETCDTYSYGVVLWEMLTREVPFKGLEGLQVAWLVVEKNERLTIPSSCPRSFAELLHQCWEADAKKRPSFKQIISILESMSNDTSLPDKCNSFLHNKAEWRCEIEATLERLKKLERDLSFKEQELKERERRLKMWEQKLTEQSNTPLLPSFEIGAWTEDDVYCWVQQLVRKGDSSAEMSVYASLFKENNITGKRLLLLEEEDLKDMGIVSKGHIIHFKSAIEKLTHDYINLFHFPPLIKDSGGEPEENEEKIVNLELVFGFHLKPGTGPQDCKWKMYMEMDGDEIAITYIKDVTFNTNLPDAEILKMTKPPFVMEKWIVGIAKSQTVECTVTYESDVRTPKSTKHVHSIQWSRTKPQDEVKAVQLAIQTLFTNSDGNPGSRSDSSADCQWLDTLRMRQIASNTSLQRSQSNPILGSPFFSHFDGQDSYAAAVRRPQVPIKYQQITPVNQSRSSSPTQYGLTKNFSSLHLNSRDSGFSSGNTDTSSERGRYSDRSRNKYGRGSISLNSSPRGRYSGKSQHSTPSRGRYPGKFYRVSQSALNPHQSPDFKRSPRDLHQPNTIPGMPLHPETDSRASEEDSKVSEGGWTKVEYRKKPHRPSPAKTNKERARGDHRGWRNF

pIC50 (MV4-11 [1]): 7.63
Structure (SMILES): Cc1cccc2[nH]c(C(=O)c3cc4ccc(NC(=O)Nc5cc(C(C)(C)C)on5)cc4[nH]3)cc12

pIC50 (MV4-11 [1]): 9.11
Structure (SMILES): CC(C)(C)c1cc(NC(=O)Nc2ccc3[nH]c(C(=O)c4cc5cc(O)ccc5o4)cc3c2)no1

pIC50 (MV4-11 [1]): < 7.00
Structure (SMILES): Cc1cccc2[nH]c(C(=O)c3cc4cccc(NC(=O)Nc5cc(C(C)(C)C)on5)c4[nH]3)cc12

pIC50 (MV4-11 [1]): < 7.00
Structure (SMILES): CC(C)(C)c1cc(NC(=O)Nc2cnc3[nH]c(C(=O)c4cc5cc(O)ccc5[nH]4)cc3c2)no1

pIC50 (MV4-11 [1]): < 7.00
Structure (SMILES): Cc1cccc2[nH]c(C(=O)c3cc4c(NC(=O)Nc5cc(C(C)(C)C)on5)cccc4[nH]3)cc12

pIC50 (MV4-11 [1]): 7.84
Structure (SMILES): CC(C)(C)c1nnc(NC(=O)Nc2ccc3[nH]c(C(=O)c4cc5cc(O)ccc5[nH]4)cc3c2)s1

Structure (SMILES): CC(C)(C)c1cc(NC(=O)Nc2ccc3oc(C(=O)c4cc5cc(OC(=O)N6CCC(N7CCCCC7)CC6)ccc5[nH]4)cc3c2)no1.Cl
Activity [2]: 3% | Activity [3]: Non-Toxic | pIC50 (cells [4]): 9.16 | pIC50 (IM-9): 8.65 | pIC50 (EOL1): 13.00 | pIC50 (HL-60): 8.63 | pIC50 (KG-1): 9.25 | pIC50 (KG-1a): 9.21 | pIC50 (MOLM-13): 11.70 | pIC50 (MV4-11 [5]): 12.05 | pIC50 (NOMO-1): 8.92 | pIC50 (OCI-AML2): 8.86 | pIC50 (cells [6]): 8.88 | pIC50 (THP-1): 8.67 | pIC50 (L-363): 8.79 | pIC50 (OPM-2): 8.88 | pIC50 (RPMI-8226): 8.63 | pIC50 (U-266): 8.86 | pIC50 (KMOE-2): 8.27 | pIC50 (cells [7]): 8.63 | pIC50 (ML-2): 8.83 | pIC50 (cells [8]): 12.00 | pIC50 (MONO-MAC-6): 10.96 | pIC50 (NB-4): 8.44 | pIC50 (OCI-AML-5): 9.80 | pIC50 (SKM-1): 8.87 | pIC50 (TF-1): 8.28 | pIC50 (cells [9]): 8.64 | solubility at 3 h (physchem): 230 µg/mL

pIC50 (MV4-11 [1]): 7.53
Structure (SMILES): CC(C)(C)c1cc(NC(=O)Nc2cc3cc(C(=O)c4cc5cc(O)ccc5o4)[nH]c3cn2)no1

pIC50 (MV4-11 [1]): < 7.00
Structure (SMILES): Cc1cc(NC(=O)Nc2ccc3[nH]c(C(=O)c4cc5cc(O)ccc5[nH]4)cc3c2)no1

pIC50 (MV4-11 [1]): 8.77
Structure (SMILES): CC(C)(C)c1cc(NC(=O)Nc2ccc3[nH]c(C(=O)c4cc5cc(O)ccc5[nH]4)cc3c2)no1

pIC50 (MV4-11 [1]): 7.87
Structure (SMILES): Cc1cccc2[nH]c(C(=O)c3cc4cc(NC(=O)Nc5cc(C(C)(C)C)on5)ccc4[nH]3)cc12

pIC50 [10]: 8.64 | pIC50 [11]: 8.32 | pKd [12]: 6.94 | pEC50 [13]: 5.60 | pEC50 [14]: 5.75 | pEC50 [15]: 5.41 | pEC50 [16]: 5.49 | pEC50 [17]: 5.60 | pEC50 [18]: 5.75 | pEC50 (Ephrin type-A receptor 7): 5.49 | inhibition [19]: Active
Structure (SMILES): CC(C)(C)c1cc(NC(=O)Nc2ccc3oc(C(=O)c4cc5cc(O)ccc5[nH]4)cc3c2)no1

— ChEMBL document CHEMBL4680233, “A series of novel aryl-methanone derivatives as inhibitors of FMS-like tyrosine kinase 3 (FLT3) in FLT3-ITD-positive acute myeloid leukemia” (Eur J Med Chem, 2020)
